# Experimental data published in publication PMC11322497 (Frontiers in Pharmacology, 2024).
# Read-outs that look alike come from different tables or passages of the source.
# How the values were obtained:
# [1] = tested on: high fat diet (HFD) rabbit model of metabolic-associated steatohepatitis (MASH); test: HFD rabbit study, prolonged 4-week treatment: protein expression in liver homogenates; assay type: in vivo, New Zealand White rabbits; settings: HFD rabbits, weeks 9–12, mean±SD, n=3
# Protocol: (§1) After 1 week (W) of RD, the animals (n = 44) were randomly assigned to the following groups (Table 1B): • Control rabbits continued to receive a RD for 12 weeks and were treated with vehicle for 5 days a week (days 1–5, p.o.) during the last 4 weeks before culling (RD + 4W Veh group); • Rabbits received a HFD for 8 weeks and were culled (HFD 8W group); • Rabbits received a HFD for 12 weeks and were treated with vehicle for 5 days a week (days 1–5, p.o.) during the last 4 weeks before culling (HFD+4W Veh group); • Rabbits received a HFD for 12 weeks and were treated with GB1211 (0.3 mg/kg) for 5 days a week (days 1–5, p.o.) during the last 4 weeks before culling (HFD + 4W 0.3 mg group); • Rabbits received a HFD for 12 weeks and were treated with GB1211 (1.0 mg/kg) for 5 days a week (days 1–5, p.o.) during the last 4 weeks before culling (HFD + 4W 1.0 mg group); • Rabbits received a HFD for 12 weeks and were treated with GB1211 (5.0 mg/kg) for 5 days a week (days 1–5, p.o.) during the last 4 weeks before culling (HFD + 4W 5.0 mg group).
# Quantitative analyses of collagen, IL6 and TNFα expression in liver biopsies were carried out using available commercial assays. Collagen content was evaluated in liver homogenates employing the Sircol S2000 assay (Biocolor, Carrickfergus, United Kingdom), in accordance with manufacturer’s protocols. Briefly, 30 mg liver biopsies were fragmented in the appropriate reagent and the supernatant was bound to a dye reagent containing Sirius Red, which would generate a colorimetric reaction quantified as absorbance using an internal collagen standard curve. IL6 and TNFα were quantified in liver homogenates using ELISA assay kits (both from Cloud-Clone Corp, Katy, TX). Briefly, 50 mg liver biopsies were homogenized in proprietary lysis buffer and the supernatants were analyzed by sandwich immunoassays, following the producer’s instructions.
# [2] = Plasma and liver selvigaltin concentrations after 4 weeks of treatment; assay type: in vivo; settings: New Zealand White, rabbit, oral, HFD rabbits, 0.3, 1.0, 5.0 mg/kg, read-out: increased levels in liver tissue vs plasma
# Protocol: as §1
# Liver homogenates were prepared by homogenisation of 200 mg liver tissue/ml water using a Fisherbrand™ Homogenizer 150 (Thermo Fisher Scientific, Waltham, MA). […]
# [3] = molecular target: T1, rabbit galectin-3 (Oryctolagus cuniculus, UniProt P47845); test: Galectins fluorescence polarization binding assay
# T1 construct: made in house
# T1 sequence (P47845 whole entry): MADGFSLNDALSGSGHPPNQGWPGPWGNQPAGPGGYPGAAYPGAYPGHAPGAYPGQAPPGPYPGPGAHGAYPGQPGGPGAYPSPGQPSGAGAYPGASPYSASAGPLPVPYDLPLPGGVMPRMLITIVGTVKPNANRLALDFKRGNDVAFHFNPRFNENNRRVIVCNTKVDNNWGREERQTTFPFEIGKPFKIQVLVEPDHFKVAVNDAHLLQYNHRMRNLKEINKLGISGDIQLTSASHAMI
# Protocol: Briefly, FP was measured from above in 96-well microtiter plates (black polystyrene; Costar, Corning, NY) using a POLARStar® instrument (BMG Labtech, Ortenberg, Germany). The final sample volume in each well was 200 μL. For inhibition assays, 100 μL of galectin and probe at fixed concentration was mixed with 100 μL of inhibitor solution and FP was measured as described above. Control wells containing only fluorescent probe or fluorescein were included.
# All dilutions and measurements were done in PBS with plates incubated at room temperature for 1 h.
smiles,measurement,setting,value
OC[C@H]1O[C@H](Sc2cncc(Br)c2)[C@H](O)[C@@H](n2cc(-c3cc(F)c(F)c(F)c3)nn2)[C@H]1O [selvigaltin],Collagen protein in liver homogenate,[1]; 0.3 mg/kg p.o.,57.63 ± 2.73 µg/mg Liver
same,IL6 protein in liver homogenate,[1]; 0.3 mg/kg p.o.,76.12 ± 8.47 pg/g Liver
same,TNFα protein in liver homogenate,[1]; 0.3 mg/kg p.o.,1.61 ± 0.54 pg/mg Liver
same,Collagen protein in liver homogenate,[1]; 1.0 mg/kg p.o.,45.25 ± 3.42 µg/mg Liver
same,IL6 protein in liver homogenate,[1]; 1.0 mg/kg p.o.,63.53 ± 20.39 pg/g Liver
same,TNFα protein in liver homogenate,[1]; 1.0 mg/kg p.o.,1.24 ± 0.58 pg/mg Liver
same,Collagen protein in liver homogenate,[1]; 5.0 mg/kg p.o.,50.86 ± 5.22 µg/mg Liver
same,IL6 protein in liver homogenate,[1]; 5.0 mg/kg p.o.,64.27 ± 18.36 pg/g Liver
same,TNFα protein in liver homogenate,[1]; 5.0 mg/kg p.o.,1.33 ± 0.68 pg/mg Liver
same,Kp at 4 weeks,[2],50 to 60
same,Kd,"[3]; equivalent to KD of 12 nM, read-out: rabbit galectin-3 KD, equivalent concentration (converted)",0.012 µM
same,Kd,"[3]; fluorescence polarization, mean ± SD, n = 3, read-out: KD rabbit galectin-3",0.012 µM
